target: T1, G9a (Homo sapiens, UniProt Q96KQ7); assay: Inhibition of G9a, AlphaLISA assay; assay type: biochemical; details: not given
T1 sequence (Q96KQ7 1-1210): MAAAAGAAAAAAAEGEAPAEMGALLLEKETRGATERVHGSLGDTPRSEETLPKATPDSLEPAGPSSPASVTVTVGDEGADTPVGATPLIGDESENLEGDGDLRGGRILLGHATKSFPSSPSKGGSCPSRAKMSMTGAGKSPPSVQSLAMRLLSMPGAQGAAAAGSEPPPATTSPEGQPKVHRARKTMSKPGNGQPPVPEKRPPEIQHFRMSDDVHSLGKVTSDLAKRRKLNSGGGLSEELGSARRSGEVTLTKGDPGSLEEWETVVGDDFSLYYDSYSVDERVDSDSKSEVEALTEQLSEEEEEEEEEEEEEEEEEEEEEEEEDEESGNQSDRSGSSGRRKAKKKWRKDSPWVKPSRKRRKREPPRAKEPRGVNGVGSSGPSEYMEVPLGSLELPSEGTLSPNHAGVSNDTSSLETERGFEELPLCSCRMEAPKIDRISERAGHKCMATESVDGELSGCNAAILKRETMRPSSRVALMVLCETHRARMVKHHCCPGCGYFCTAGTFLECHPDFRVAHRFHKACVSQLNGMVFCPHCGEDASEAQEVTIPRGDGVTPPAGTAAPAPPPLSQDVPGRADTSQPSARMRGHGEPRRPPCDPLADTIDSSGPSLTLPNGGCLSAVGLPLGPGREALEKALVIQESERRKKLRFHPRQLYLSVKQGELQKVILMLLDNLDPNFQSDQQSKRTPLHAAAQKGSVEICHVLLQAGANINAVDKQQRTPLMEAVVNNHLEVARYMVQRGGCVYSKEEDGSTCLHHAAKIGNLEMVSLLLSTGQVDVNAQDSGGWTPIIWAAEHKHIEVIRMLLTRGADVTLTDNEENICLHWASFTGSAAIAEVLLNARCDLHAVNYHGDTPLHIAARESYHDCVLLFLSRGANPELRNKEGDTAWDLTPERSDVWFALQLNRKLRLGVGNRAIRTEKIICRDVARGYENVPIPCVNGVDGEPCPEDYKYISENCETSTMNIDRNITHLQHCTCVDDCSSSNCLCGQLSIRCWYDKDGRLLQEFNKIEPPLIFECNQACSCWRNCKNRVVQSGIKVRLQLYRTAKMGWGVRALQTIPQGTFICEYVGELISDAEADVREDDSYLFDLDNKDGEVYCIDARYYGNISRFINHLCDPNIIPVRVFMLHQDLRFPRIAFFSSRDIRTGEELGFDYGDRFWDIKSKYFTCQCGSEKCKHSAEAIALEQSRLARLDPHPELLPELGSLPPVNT
Procedure: The G9a assay was conducted in an Alphascreen format to detect methyl modification of a histone H3 peptide by the histone methyl transferase activity of the G9a enzyme.
For the assay, the following buffer was used to set up reactions: 50 mM Tris-HCl pH 7.5, 50 mM NaCl, 1 mM DTT, 0.01% Triton X-100, and 0.005% BSA, with the DTT and BSA added fresh prior to starting the reactions.
IC50 values were calculated by fitting the inhibition percent to the concentration of inhibitor [I] in the assay in equation 1 below, to solve for the IC50.

SMILES | IC50
COc1cc2c(cc1OCCCN1CC[C@H](F)C1)N=C(N)C21CCC1 [Example 12, (S)-6′-(3-(3-fluoropyrrolidin-1-yl)propoxy)-5′-methoxyspiro[cyclobutane-1,3′-indol]-2′-amine] | 3.7 nM
COc1cc2c(cc1OCCCC1CCCC1)N=C(N)C2(C)C [Example 17, 6-(3-cyclopentylpropoxy)-5-methoxy-3,3-dimethyl-3H-indol-2-amine] | 12900 nM
COc1cc2c(cc1OCCCn1ccnc1)N=C(N)C21CCC1 [Example 11, 6′-(3-(1H-imidazol-1-yl)propoxy)-5′-methoxyspiro[cyclobutane-1,3′-indol]-2′-amine] | 754 nM
COc1cc2c(cc1OCCCN1CC(F)(F)C1)N=C(N)C21CCC1 [Example 14, 6′-(3-(3,3-difluoroazetidin-1-yl)propoxy)-5′-methoxyspiro[cyclobutane-1,3′-indol]-2′-amine] | 1340 nM
COc1cc2c(cc1OCCCN1CC[C@@H](F)C1)N=C(N)C21CCC1 [Example 15, (R)-6′-(3-(3-fluoropyrrolidin-1-yl)propoxy)-5′-methoxyspiro[cyclobutane-1,3′-indol]-2′-amine] | 18 nM
COc1cc2c(cc1OCCCN1CC(F)C1)N=C(N)C21CCC1 [Example 13, 6′-(3-(3-fluoroazetidin-1-yl)propoxy)-5′-methoxyspiro[cyclobutane-1,3′-indol]-2′-amine] | 4.8 nM
COc1cc2c(cc1OCCC1CCCN1C)N=C(N)C21CCC1 (stereo not shown) [Example 10, 5′-methoxy-6′-(2-(1-methylpyrrolidin-2-yl)ethoxy)spiro[cyclobutane-1,3′-indol]-2′-amine] | 150 nM
COc1ccc2c(c1)C1(CCC1)C(N)=N2 [Example 5, 5′-methoxyspiro[cyclobutane-1,3′-indol]-2′-amine] | 18200 nM

The next lines start with the values.

IC50 | SMILES
2460 nM | COc1cc2c(cc1OC)C1(CCCC1)C(N)=N2 [Example 4, 5′,6′-dimethoxyspiro[cyclopentane-1,3′-indol]-2′-amine]
3540 nM | COc1cc2c(cc1OC)C1(CCCCC1)C(N)=N2 [Example 2, 5′,6′-dimethoxyspiro[cyclohexane-1,3′-indol]-2′-amine]
1 nM | COc1cc2c(cc1OCC1CCN(C)C1)N=C(N)C21CCC1 (stereo not shown) [Example 8, 5′-methoxy-6′-((1-methylpyrrolidin-3-yl)methoxy)spiro[cyclobutane-1,3′-indol]-2′-amine]
14400 nM | COc1cc2c(cc1OC)N=C(N)C2 [Example 6, 5,6-dimethoxy-3H-indol-2-amine]
5 nM | COc1cc2c(cc1OCC1CCCN1C)N=C(N)C21CCC1 (stereo not shown) [Example 9, 5′-methoxy-6′-((1-methylpyrrolidin-2-yl)methoxy)spiro[cyclobutane-1,3′-indol]-2′-amine]
0.9 nM | COc1cc2c(cc1OCCCN1CCCC1)N=C(N)C2(C)C [Example 16, 5-methoxy-3,3-dimethyl-6-(3-(pyrrolidin-1-yl)propoxy)-3H-indol-2-amine]
153 nM | COc1cc2c(cc1OC)C1(CCC1)C(N)=N2 [Example 3, 5′,6′-dimethoxyspiro[cyclobutane-1,3′-indol]-2′-amine]

tested on: MV4;11 cells; assay: Differentiation, proliferation, viability and cell cycle of MV4;11 cells, 14 days; assay type: cell-based, human; details: MV4;11 cells, 0-3 μM
Text: MV4;11 cells are a human acute myelocytic leukemia (AML) cell line derived from a human with leukemia.

SMILES | cell cycle analysis (PI staining) | expression of marker CD11b by flow cytometry (differentiation)
CC1=C(/C=C/C(C)=C/C=C/C(C)=C/C(=O)O)C(C)(C)CCC1 [ATRA, all trans retinoic acid, reference compound] | more cells were observed to be in the subG1/G0 phase | more cells in the population expressed the marker CD11b

same assay, conditions: MV4;11 cells, compared with Example 7

SMILES | effect on cell viability
CC1=C(/C=C/C(C)=C/C=C/C(C)=C/C(=O)O)C(C)(C)CCC1 [ATRA, all trans retinoic acid, reference compound] | less of an effect on cell viability

same assay, conditions: MV4;11 cells, increasing concentration

SMILES | growth inhibition and expression of CD11b
CC1=C(/C=C/C(C)=C/C=C/C(C)=C/C(=O)O)C(C)(C)CCC1 [ATRA, all trans retinoic acid, reference compound] | lead to growth inhibition and expression of CD11b

Reference: patent US9284272B2, “Inhibitors of histone methyltransferase G9a” (AbbVie Inc., priority 2014, dated 2016)
